Patent US9878986B2, “Compounds for selective histone deacetylase inhibitors, and pharmaceutical composition comprising the same” (CHONG KUN DANG PHARMACEUTICAL CORP., priority 2013, dated 2018)
Blank lines part the entries; values can stand above or below the molecule they belong to.

Legend:
HDAC1 = HDAC1 (Homo sapiens, UniProt Q13547); test: Test of HDAC activities, HDAC1 Fluorimetric Drug Discovery Assay Kit; assay type: biochemical; design: purchased Enzolifesciences BML-AK511; details: samples at 100, 1000, 10000 nM; 37° C. 60 minutes; fluorescence Ex 390, Em 460; read-out: HDAC inhibitory activities, HDAC1
Description: (§1) The HDAC inhibitory activities of test materials were measured using the HDAC1 Fluorimetric Drug Discovery Assay Kit (Enzolifesciences: BML-AK511) and HDAC6 human recombinant (Calbiochem: 382180). In the HDAC1 assay, the samples were treated with concentrations of 100, 1000, and 10000 nM, and in the HDAC6 assay, the samples were treated with concentrations of 0.1, 1, 10, 100, and 1000 nM. After the treatment of the samples, the samples were reacted at 37° C. for 60 minutes, treated with a developer, and then reacted at 37° C. for 30 minutes. Then, the fluorescence intensity (Ex 390, Em 460) was measured using the FlexStation 3 (Molecular device).

HDAC 6 = biological target: T1, HDAC 6 (Homo sapiens, UniProt Q9UBN7); test: Test of HDAC activities, HDAC6 (fluorimetric); assay type: biochemical; design: purchased Calbiochem 382180; details: samples at 0.1, 1, 10, 100, 1000 nM; 37° C. 60 minutes; fluorescence Ex 390, Em 460; read-out: HDAC inhibitory activities, HDAC6
T1 sequence (Q9UBN7 1-1215): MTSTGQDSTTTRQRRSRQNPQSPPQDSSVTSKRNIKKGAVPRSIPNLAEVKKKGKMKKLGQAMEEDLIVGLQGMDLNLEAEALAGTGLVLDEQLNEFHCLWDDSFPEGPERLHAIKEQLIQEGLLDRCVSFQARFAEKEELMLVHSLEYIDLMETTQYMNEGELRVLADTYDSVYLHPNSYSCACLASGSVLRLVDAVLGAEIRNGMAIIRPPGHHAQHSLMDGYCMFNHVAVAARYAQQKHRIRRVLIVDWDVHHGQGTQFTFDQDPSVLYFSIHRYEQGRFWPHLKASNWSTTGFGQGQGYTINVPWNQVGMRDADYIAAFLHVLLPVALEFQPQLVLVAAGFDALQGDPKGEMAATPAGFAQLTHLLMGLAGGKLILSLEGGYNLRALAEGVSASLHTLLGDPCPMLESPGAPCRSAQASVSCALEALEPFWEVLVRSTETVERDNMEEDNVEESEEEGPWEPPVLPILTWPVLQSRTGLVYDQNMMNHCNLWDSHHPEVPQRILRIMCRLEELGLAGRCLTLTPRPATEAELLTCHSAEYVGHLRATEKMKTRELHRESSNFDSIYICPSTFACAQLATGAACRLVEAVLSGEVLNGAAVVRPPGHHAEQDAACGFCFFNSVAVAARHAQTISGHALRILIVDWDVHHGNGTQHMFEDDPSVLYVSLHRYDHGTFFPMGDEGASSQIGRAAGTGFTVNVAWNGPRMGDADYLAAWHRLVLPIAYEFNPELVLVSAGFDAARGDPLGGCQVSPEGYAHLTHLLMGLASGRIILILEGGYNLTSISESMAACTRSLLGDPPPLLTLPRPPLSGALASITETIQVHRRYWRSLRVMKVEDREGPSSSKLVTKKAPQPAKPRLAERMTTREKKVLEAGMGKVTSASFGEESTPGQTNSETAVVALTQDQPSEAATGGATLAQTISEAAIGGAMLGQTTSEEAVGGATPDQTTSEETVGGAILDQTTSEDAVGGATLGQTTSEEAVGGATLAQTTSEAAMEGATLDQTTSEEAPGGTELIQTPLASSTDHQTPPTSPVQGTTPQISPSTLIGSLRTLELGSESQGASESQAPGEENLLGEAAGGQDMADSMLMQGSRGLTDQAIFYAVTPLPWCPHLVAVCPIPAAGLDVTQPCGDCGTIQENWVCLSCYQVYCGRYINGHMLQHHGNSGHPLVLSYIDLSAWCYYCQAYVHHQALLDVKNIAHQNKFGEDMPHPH
Description: as §1

HDAC1, sequence (Q13547 whole entry): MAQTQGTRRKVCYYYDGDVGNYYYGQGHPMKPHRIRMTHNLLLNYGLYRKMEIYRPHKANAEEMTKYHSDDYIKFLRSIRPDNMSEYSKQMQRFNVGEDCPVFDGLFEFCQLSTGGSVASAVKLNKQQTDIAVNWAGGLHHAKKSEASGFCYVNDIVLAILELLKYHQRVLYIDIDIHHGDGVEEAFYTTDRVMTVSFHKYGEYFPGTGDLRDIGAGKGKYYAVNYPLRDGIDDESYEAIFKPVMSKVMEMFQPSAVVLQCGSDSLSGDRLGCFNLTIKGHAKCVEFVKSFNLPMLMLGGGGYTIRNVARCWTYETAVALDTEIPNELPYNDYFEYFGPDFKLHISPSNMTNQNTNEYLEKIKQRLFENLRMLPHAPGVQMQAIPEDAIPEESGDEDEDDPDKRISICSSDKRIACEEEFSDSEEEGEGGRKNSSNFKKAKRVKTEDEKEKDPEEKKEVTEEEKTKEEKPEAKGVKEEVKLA

SMILES: O=C(NO)c1ccc(CN(C(=O)N2CCCCC2)c2ccc(Cl)c(C(F)(F)F)c2)cc1 [Compound 389, N-(4-chloro-3-(trifluoromethyl)phenyl)-N-(4-(hydroxycarbamoyl)benzyl)piperidine-1-carboxamide]
IC50 (HDAC1): 7830 nM
IC50 (HDAC 6): 37 nM

SMILES: CC1CCN(C(=O)N(Cc2ccc(C(=O)NO)cc2)c2ccc(Cl)c(C(F)(F)F)c2)CC1 [Compound 390, N-(4-chloro-3-(trifluoromethyl)phenyl)-N-(4-(hydroxycarbamoyl)benzyl)-4-methylpiperidine-1-carboxamide]
IC50 (HDAC1): 6220 nM
IC50 (HDAC 6): 20 nM

SMILES: O=C(NO)c1ccc(CN(C(=O)N2CCOCC2)c2ccc(Cl)c(C(F)(F)F)c2)cc1 [Compound 391, N-(4-chloro-3-(trifluoromethyl)phenyl)-N-(4-(hydroxycarbamoyl)benzyl)morpholine-4-carboxamide]
IC50 (HDAC1): 2120 nM
IC50 (HDAC 6): 3 nM

SMILES: CC1CN(C(=O)N(Cc2ccc(C(=O)NO)cc2)c2ccc(Cl)c(C(F)(F)F)c2)CC(C)O1 (centres unmarked) [Compound 392, N-(4-chloro-3-(trifluoromethyl)phenyl)-N-(4-(hydroxycarbamoyl)benzyl)-2,6-dimethylmorpholine-4-carboxamide]
IC50 (HDAC1): 2870 nM
IC50 (HDAC 6): 5 nM

SMILES: CN1CCN(C(=O)N(Cc2ccc(C(=O)NO)cc2)c2ccc(Cl)c(C(F)(F)F)c2)CC1 [Compound 393, N-(4-chloro-3-(trifluoromethyl)phenyl)-N-(4-(hydroxycarbamoyl)benzyl)-4-methylpiperazine-1-carboxamide]
IC50 (HDAC1): 1110 nM
IC50 (HDAC 6): 5 nM

SMILES: CCN1CCN(C(=O)N(Cc2ccc(C(=O)NO)cc2)c2ccc(Cl)c(C(F)(F)F)c2)CC1 [Compound 394, N-(4-chloro-3-(trifluoromethyl)phenyl)-4-ethyl-N-(4-(hydroxycarbamoyl)benzyl)piperazine-1-carboxamide]
IC50 (HDAC1): 2590 nM
IC50 (HDAC 6): 11 nM

SMILES: O=C(NO)c1ccc(CN(C(=O)N2CCOCC2)c2cccc(-c3cc(F)cc(F)c3)c2)cc1 [Compound 395, N-(3′,5′-difluorobiphenyl-3-yl)-N-(4-(hydroxycarbamoyl)benzyl)morpholine-4-carboxamide]
IC50 (HDAC1): 489 nM
IC50 (HDAC 6): 5 nM

SMILES: CN(C)c1ccc(-c2cccc(N(Cc3ccc(C(=O)NO)cc3)C(=O)N3CCOCC3)c2)cn1 [Compound 396, N-(3-(6-(dimethylamino)pyridin-3-yl)phenyl)-N-(4-(hydroxycarbamoyl)benzyl)morpholine-4-carboxamide]
IC50 (HDAC1): 257 nM
IC50 (HDAC 6): 5 nM

SMILES: O=C(NO)c1ccc(CN(C(=O)N2CCOCC2)c2cccc(-c3cncnc3)c2)cc1 [Compound 397, N-(4-(hydroxycarbamoyl)benzyl)-N-(3-(pyrimidin-5-yl)phenyl)morpholine-4-carboxamide]
IC50 (HDAC1): 1000 nM
IC50 (HDAC 6): 14 nM

SMILES: O=C(NO)c1ccc(CN(C(=O)N2CCOCC2)c2cccc(-c3cc(C(F)(F)F)cc(C(F)(F)F)c3)c2)cc1 [Compound 398, N-(3′,5′-bis(trifluoromethyl)biphenyl-3-yl)-N-(4-(hydroxycarbamoyl)benzyl)morpholine-4-carboxamide]
IC50 (HDAC1): 4450 nM
IC50 (HDAC 6): 32 nM

SMILES: O=C(NO)c1ccc(CN(C(=O)N2CCOCC2)c2cccc(-c3ccc4c(c3)OCCO4)c2)cc1 [Compound 399, N-(3-(2,3-dihydrobenzo[b][1,4]dioxin-6-yl)phenyl)-N-(4-(hydroxycarbamoyl)benzyl)morpholine-4-carboxamide]
IC50 (HDAC1): 302 nM
IC50 (HDAC 6): 7 nM

SMILES: COc1cc(-c2cccc(N(Cc3ccc(C(=O)NO)cc3)C(=O)N3CCOCC3)c2)cc(OC)c1OC [Compound 400, N-(4-(hydroxycarbamoyl)benzyl)-N-(3′,4′,5′-trimethoxybiphenyl-3-yl)morpholine-4-carboxamide]
IC50 (HDAC1): 770 nM
IC50 (HDAC 6): 8 nM

SMILES: Cc1cccc(C)c1-c1cccc(N(Cc2ccc(C(=O)NO)cc2)C(=O)N2CCOCC2)c1 [Compound 401, N-(2′,6′-dimethylbiphenyl-3-yl)-N-(4-(hydroxycarbamoyl)benzyl)morpholine-4-carboxamide]
IC50 (HDAC1): 1790 nM
IC50 (HDAC 6): 8 nM

SMILES: O=C(NO)c1ccc(CN(C(=O)N2CCOCC2)c2cccc(-c3ccoc3)c2)cc1 [Compound 402, N-(3-(furan-3-yl)phenyl)-N-(4-(hydroxycarbamoyl)benzyl)morpholine-4-carboxamide]
IC50 (HDAC1): 170 nM
IC50 (HDAC 6): 3 nM

SMILES: O=C(NO)c1ccc(CN(C(=O)N2CCOCC2)c2cccc(C3=CCOCC3)c2)cc1 [Compound 403, N-(3-(3,6-dihydro-2H-pyran-4-yl)phenyl)-N-(4-(hydroxycarbamoyl)benzyl)morpholine-4-carboxamide]
IC50 (HDAC1): 453 nM
IC50 (HDAC 6): 1 nM

SMILES: CN1CC=C(c2cccc(N(Cc3ccc(C(=O)NO)cc3)C(=O)N3CCOCC3)c2)CC1 [Compound 404, N-(4-(hydroxycarbamoyl)benzyl)-N-(3-(1-methyl-1,2,3,6-tetrahydropyridin-4-yl)phenyl) morpholine-4-carboxamide]
IC50 (HDAC1): 3500 nM
IC50 (HDAC 6): 16 nM

SMILES: CC(C)(C)OC(=O)N1CC=C(c2cccc(N(Cc3ccc(C(=O)NO)cc3)C(=O)N3CCOCC3)c2)CC1 [Compound 405, tert-butyl 4-(3-(N-(4-(hydroxycarbamoyl)benzyl)morpholine-4-carboxamido)phenyl)-5,6-dihydropyridine-1(2H)-carboxylate]
IC50 (HDAC1): 1450 nM
IC50 (HDAC 6): 3 nM

The next lines start with the values.

IC50 (HDAC1): 860 nM
IC50 (HDAC 6): 0.4 nM
SMILES: O=C(NO)c1ccc(CN(C(=O)N2CCOCC2)c2ccc(F)cc2F)cc1 [Compound 413, N-(2,4-difluorophenyl)-N-(4-(hydroxycarbamoyl)benzyl)morpholine-4-carboxamide]

IC50 (HDAC1): 1170 nM
IC50 (HDAC 6): 1 nM
SMILES: O=C(NO)c1ccc(CN(C(=O)N2CCCCC2)c2ccc(F)cc2F)cc1 [Compound 414, N-(2,4-difluorophenyl)-N-(4-(hydroxycarbamoyl)benzyl)piperidine-1-carboxamide]

IC50 (HDAC1): 1220 nM
IC50 (HDAC 6): 5 nM
SMILES: CC1CN(C(=O)N(Cc2ccc(C(=O)NO)cc2)c2ccc(F)cc2F)CC(C)O1 (centres unmarked) [Compound 415, N-(2,4-difluorophenyl)-N-(4-(hydroxycarbamoyl)benzyl)-2,6-dimethylmorpholine-4-carboxamide]

IC50 (HDAC1): 930 nM
IC50 (HDAC 6): 2 nM
SMILES: CN1CCN(C(=O)N(Cc2ccc(C(=O)NO)cc2)c2ccc(F)cc2F)CC1 [Compound 416, N-(2,4-difluorophenyl)-N-(4-(hydroxycarbamoyl)benzyl)-4-methylpiperazine-1-carboxamide]

IC50 (HDAC1): 190 nM
IC50 (HDAC 6): 2 nM
SMILES: O=C(NO)c1ccc(CN(C(=O)N2CCOCC2)c2cccc(-c3ccc4c(c3)OCO4)c2)cc1 [Compound 418, N-(3-(benzo[d][1,3]dioxol-5-yl)phenyl)-N-(4-(hydroxycarbamoyl)benzyl)morpholine-4-carboxamide]

IC50 (HDAC1): 460 nM
IC50 (HDAC 6): 5 nM
SMILES: CC(=O)N1CC=C(c2cccc(N(Cc3ccc(C(=O)NO)cc3)C(=O)N3CCOCC3)c2)CC1 [Compound 419, N-(3-(1-acetyl-1,2,3,6-tetrahydropyridin-4-yl)phenyl)-N-(4-(hydroxycarbamoyl)benzyl) morpholine-4-carboxamide]

IC50 (HDAC1): 310 nM
IC50 (HDAC 6): 4 nM
SMILES: CS(=O)(=O)N1CC=C(c2cccc(N(Cc3ccc(C(=O)NO)cc3)C(=O)N3CCOCC3)c2)CC1 [Compound 420, N-(4-(hydroxycarbamoyl)benzyl)-N-(3-(1-(methylsulfonyl)-1,2,3,6-tetrahydropyridin-4-yl)phenyl)morpholine-4-carboxamide]

IC50 (HDAC1): 1740 nM
IC50 (HDAC 6): 4 nM
SMILES: Cc1ccc(N(Cc2ccc(C(=O)NO)cc2)C(=O)N2CCCCC2)c(F)c1 [Compound 438, N-(2-fluoro-4-methylphenyl)-N-(4-(hydroxycarbamoyl)benzyl)piperidine-1-carboxamide]
